Where two headings read alike, the source gives them in different places.
Assays:
Format in all cases: cell-based
human A549 cells [1] = assay: Protective effect against cell injury induced by oxidized LDL in human A549 cells (LDH leakage); settings: for inhibition at 3 µM / inhibition at 30 µM: Homo sapiens, oxidized LDL 100 μg/mL, 24 hours, average ± standard error; for inhibition at 3 µM: 3 μmol/L test compound; for inhibition at 30 µM: 30 μmol/L test compound
Method: (§1) Oxidized LDL was prepared by maintaining 1 mg/mL of rabbit LDL at 37° C for 24 hours in PBS (-) containing 10 μmol/L CUSO4.
Human A549 cells used in this test are available under accession number ATCC-CCL-185 and have the properties of type II alveolar epithelial cells (Lieber M, Smith B, Szakal A, Nelson-Rees W, Todaro G., A continuous tumor-cell line from a human lung carcinoma with properties of type II alveolar epithelial cells. Int J Cancer Jan. 15, 1976; 17(1):62-70).
(§2) These cells were dispersed in F12K medium containing 10% FBS and plated on a 24-well plate at 2.5×10^4 cells/500 μL/well. These cells were incubated at 37° C. for 18 hours and then the medium was replaced by F12K medium containing 2% FBS. At this time, 2.5 μL of a solution or a suspension of each test compound in ethanol was added at the concentrations of the test compound of 3 μmol/L and 30 μmol/L in each well.
(§3) After incubation at 37° C. for 6 hours, 50 μL of a suspension of oxidized LDL was added per well at the concentration of oxidized LDL of 100 μg/mL in each well.
(§4) After incubation at 37° C. for 24 hours, 200 μL of the supernatant was collected from each well and the amount of lactate dehydrogenase (LDH) leaked from cells was determined by the SFBC method.
(§5) Further test was carried out in the same manner as the above test with the exception that each test compound was added to the cell culture after incubation for 6 hours following medium replacement and immediately before oxidized LDL was added thereto rather than when the medium was replaced with F12K medium containing 2% FBS.
(§6) Higher LDH levels in the supernatant indicate that greater cell injury is induced by oxidized LDL. Separately, one experiment was carried out using a well in the same manner as the above test with the exception that no test compound was added to the well. The level of LDH in this well was defined as 0% cell protection. In addition, other experiment was carried out using another well without adding either test compound or oxidized LDL but with adding saline instead. The level of LDH in this well was defined as 100% cell protection. These levels of LDH were used for calculating cell protection of each test compound used in the above test.
Probucol and α-tocopherol were tested for comparison with the compounds of the present invention. In this test, the test compounds were added to the cell culture after incubation for 6 hours following medium replacement and immediately before oxidized LDL was added.

human A549 cells [2] = assay: Protective effect against cell injury induced by t-butyl hydroperoxide in human A549 cells; settings: t-BuOOH in saline in each well
[3] = system: normal human bronchial/tracheal epithelial cells (NHBE w/RA); assay: Protective effect against cell injury induced by oxidized LDL in normal human bronchial/tracheal epithelial cells (LDH leakage); settings: 24 h, average ± standard error; for inhibition at 3 µM: 3 μmol/L test compound; for inhibition at 30 µM: 30 μmol/L test compound
Method: as §1, §2, §3, §4, §5, §6
This test example was carried out in a similar manner to test example 1 except that human A549 cells were replaced with normal human bronchial/tracheal epithelial cells (NHBE w/RA: BioWhittaker Co.), cell culture medium was changed from F12K medium containing 10% FBS to BEGM® medium, and the replacement of medium was not made.

[4] = read-out: % Cell protection in the case where oxidized LDL was added 6 hrs after adding test compound
[5] = read-out: % Cell protection in the case where oxidized LDL was added immediately after adding test compound

| SMILES | inhibition at 3 µM (human A549 cells [1]; [4]) [%] | inhibition at 3 µM (human A549 cells [1]; [5]) [%] | inhibition at 30 µM (human A549 cells [1]; [4]) [%] | inhibition at 30 µM (human A549 cells [1]; [5]) [%] | % cell protection as a function of test compound concentration (FIG. 1) (human A549 cells [1]; test compound added immediately before oxidized LDL, Test Example 2) | inhibition of cell injury induced by t-butyl hydroperoxide (FIG. 2) (human A549 cells [2]) | inhibition at 3 µM [3, 4] [%] | inhibition at 3 µM [3, 5] [%] | inhibition at 30 µM [3, 4] [%] | inhibition at 30 µM [3, 5] [%] |
| --- | --- | --- | --- | --- | --- | --- | --- | --- | --- | --- |
| CCCCCC1(CCCCC)Cc2c(cc(C(C)(C)C)c(O)c2C(C)(C)C)O1 [Compound 3, 4,6-di-t-butyl-2,2-di-n-pentyl-5-hydroxy-2,3-dihydrobenzofuran] | 18.7 ± 2.1 | 14.3 ± 2.3 | 95 ± 2.5 | 85.4 ± 1.6 | begins to sharply increase when the concentration of Compound 3 exceeds about 10 μmol/L | inhibits cell injury | 49.8 ± 6.4 | 9.8 ± 3.3 | 70.8 ± 2 | 66.2 ± 2.6 |
| CC(C)(C)c1cc2c(c(C(C)(C)C)c1O)CC1(CCCC1)O2 [Compound 9, 4,6-di-t-butyl-5-hydroxy-2,3-dihydrobenzofuran-2-spiro-1′-cyclopentane] | -1.6 ± 4.4 | -1.5 ± 4.1 | 98.5 ± 1.8 | 99.2 ± 2.2 |  |  | 3.7 ± 6.7 | 6.1 ± 1.1 | 18.1 ± 2.3 | 71.1 ± 2.3 |
| CCCCCC1(CCCCC)Cc2c(cc(C)c(O)c2C)O1 [Compound 17, 4,6-dimethyl-2,2-di-n-pentyl-5-hydroxy-2,3-dihydrobenzofuran] | 97.8 ± 1.4 | 97.7 ± 1.1 |  | 98.1 ± 3.6 |  |  | 44.8 ± 5.9 | 51 ± 5 |  | 57.6 ± 0.6 |
| CC(C)(C)c1cc2c(c(C(C)(C)C)c1O)CC1(CCOCC1)O2 [Compound 8, 4,6-di-t-butyl-5-hydroxy-2,3-dihydrobenzofuran-2-spiro-4′-tetrahydropyran] | 10.6 ± 6.2 | 10.8 ± 5.2 | 95 ± 5.3 | 93.6 ± 2.9 |  |  | 10.1 ± 6 | 13.2 ± 1.4 | 74.3 ± 1.5 | 68.9 ± 0.8 |
| CC(C)(C)c1cc2c(c(C(C)(C)C)c1O)CC1(CCCCCC1)O2 [Compound 7, 4,6-di-t-butyl-5-hydroxy-2,3-dihydrobenzofuran-2-spiro-1′-cycloheptane] | 1.6 ± 6 | -0.8 ± 2.8 | 98.2 ± 2.1 | 98.4 ± 1.1 |  |  | 7.7 ± 3.6 | 11.3 ± 1.1 | 58.7 ± 5.1 | 73.4 ± 0.4 |
| CC1(C)Cc2c(c(C(C)(C)C)cc(O)c2C(C)(C)C)O1 [Compound 16, 4,7-di-t-butyl-5-hydroxy-2,2-dimethyl-2,3-dihydrobenzofuran] | 100.3 ± 1 | 99.1 ± 0.9 |  | 98.4 ± 0.6 |  |  | 54.9 ± 3.4 | 62.6 ± 1.6 |  | 42 ± 2.2 |
| CC1(C)Cc2c(cc(C(C)(C)C)c(O)c2C(C)(C)C)O1 [Compound 2, 4,6-di-t-butyl-5-hydroxy-2,2-dimethyl-2,3-dihydrobenzofuran] | 0.5 ± 1.3 | 16.9 ± 10.5 | 99.5 ± 1.1 | 100 ± 1.5 |  |  | 32.8 ± 2.9 | 71.1 ± 1.3 | 27.7 ± 2.7 | 76.1 ± 3.4 |
| CC(C)(C)c1cc2c(c(C(C)(C)C)c1O)CC1(CCOCC1)S2 [Compound 14, 4,6-di-t-butyl-5-hydroxy-2,3-dihydrobenzothiophene-2-spiro-4′-tetrahydropyran] | 7 ± 3.5 | 3.2 ± 1.3 | 96.1 ± 1.2 | 98.9 ± 2.4 |  |  | -0.5 ± 1.9 | -1 ± 5.3 | 63.3 ± 0.8 | 60.6 ± 4 |
| CC1(C)Cc2c(cc(C(C)(C)C)c(O)c2C(C)(C)C)S1 [Compound 12, 4,6-di-t-butyl-5-hydroxy-2,2-dimethyl-2,3-dihydrobenzothiophene] | 9.9 ± 6.8 | 11.1 ± 7.4 | 98.7 ± 2.9 | 96.6 ± 2 |  |  | 10.9 ± 2.1 | 10.9 ± 3.8 | 21.2 ± 2 | 48.7 ± 1.2 |
| CC(C)(C)c1cc2c(cc1O)CC1(CCCCCC1)O2 [Compound 18, 6-t-butyl-5-hydroxy-2,3-dihydrobenzofuran-2-spiro-1′-cycloheptane] | 98.7 ± 1.3 | 96.2 ± 0.4 |  | 97.4 ± 1 |  |  | 55.7 ± 3.1 | 46.4 ± 1.4 |  | 35.5 ± 1.9 |

Source: patent US20050159476A1, “Pharmaceutical composition for preventing or treating respiratory disease” (Chugai Seiyaku Kabushiki Kaisha, priority 2002, published 2005)
